Values joined by “and” are separate entries in the source; they are usually repeats but may differ in a detail not shown here. Equal entries are not always repeated.
Conditions: 343.15 K, Liquid, Vibrating tube method

CCCCCCC(=O)OCC(COC(=O)CCCCCC)(COC(=O)CCCCCC)COC(=O)CCCCCC [pentaerythritol tetraheptanoate]
Conditions | mass density
28615 kPa | 960.4 kg/m3
28635 kPa | 960.4 kg/m3
28662 kPa | 960.4 kg/m3
28700 kPa | 960.4 kg/m3
28729 kPa | 960.5 kg/m3
28739 kPa | 960.4 kg/m3
28764 kPa | 960.6 kg/m3
28779 kPa | 960.5 kg/m3
28794 kPa | 960.6 kg/m3
28823 kPa | 960.7 kg/m3
28826 kPa | 960.6 kg/m3
28858 kPa | 960.6 kg/m3
28865 kPa | 960.6 kg/m3
28887 kPa | 960.6 kg/m3
28912 kPa | 960.6 kg/m3
28918 kPa | 960.5 kg/m3
28948 kPa | 960.6 kg/m3
28952 kPa | 960.6 kg/m3
28985 kPa | 960.7 kg/m3
28992 kPa | 960.6 kg/m3
29016 kPa | 960.7 kg/m3
29032 kPa | 960.7 kg/m3
29046 kPa | 960.8 kg/m3
29076 kPa | 960.6 kg/m3
29081 kPa | 960.7 kg/m3
29112 kPa | 960.7 kg/m3
29121 kPa | 960.5 kg/m3
29142 kPa | 960.8 kg/m3
29163 kPa | 960.7 kg/m3
29178 kPa | 960.8 kg/m3
29208 kPa | 960.9 kg/m3
29212 kPa | 960.7 kg/m3
29238 kPa | 960.8 kg/m3
29254 kPa | 960.8 kg/m3
29274 kPa | 960.9 kg/m3
29305 kPa | 960.9 kg/m3
29308 kPa | 960.7 kg/m3
29336 kPa | 960.8 kg/m3
29344 kPa | 960.9 kg/m3
29372 kPa | 961 kg/m3
29387 kPa | 960.8 kg/m3
29434 kPa | 961 kg/m3
29435 kPa | 960.9 kg/m3
29461 kPa | 960.9 kg/m3
29471 kPa | 961.1 kg/m3
29503 kPa | 961 kg/m3
29534 kPa | 961 kg/m3
29540 kPa | 961 kg/m3
29564 kPa | 961 kg/m3
29571 kPa | 960.8 kg/m3
29597 kPa | 961.1 kg/m3
29602 kPa | 961.2 kg/m3
29628 kPa | 960.8 kg/m3
29634 kPa | 961.1 kg/m3
29654 kPa | 961 kg/m3
29666 kPa | 961 kg/m3
29679 kPa | 961 kg/m3
29704 kPa | 961.1 kg/m3
29705 kPa | 961.1 kg/m3
29735 kPa | 961.1 kg/m3
29736 kPa | 961.1 kg/m3
29764 kPa | 961.1 kg/m3
29767 kPa | 961.1 kg/m3
29790 kPa | 961.3 kg/m3
29805 kPa | 961.3 kg/m3
29816 kPa | 961.1 kg/m3
29839 kPa | 961.1 kg/m3
29846 kPa | 961.2 kg/m3
29871 kPa | 961.3 kg/m3
29873 kPa | 961.2 kg/m3
29900 kPa | 961.1 kg/m3
29903 kPa | 961.3 kg/m3
29931 kPa | 961.1 kg/m3
29935 kPa | 961.2 kg/m3
29958 kPa | 961.1 kg/m3
29974 kPa | 961.2 kg/m3
29984 kPa | 961.3 kg/m3
30006 kPa | 961.3 kg/m3
30016 kPa | 961.3 kg/m3
30043 kPa | 961.3 kg/m3
30045 kPa | 961.4 kg/m3
30070 kPa | 961.4 kg/m3
30077 kPa | 961.3 kg/m3
30102 kPa | 961.3 kg/m3
30109 kPa | 961.4 kg/m3
30129 kPa | 961.4 kg/m3
30148 kPa | 961.4 kg/m3
30157 kPa | 961.4 kg/m3
30180 kPa | 961.4 kg/m3
30184 kPa | 961.5 kg/m3
30213 kPa | 961.5 kg/m3
30216 kPa | 961.4 kg/m3
30243 kPa | 961.5 kg/m3
30247 kPa | 961.4 kg/m3
30275 kPa | 961.4 kg/m3
30288 kPa | 961.5 kg/m3
30302 kPa | 961.4 kg/m3
30321 kPa | 961.5 kg/m3
30330 kPa | 961.5 kg/m3
30354 kPa | 961.6 kg/m3
30363 kPa | 961.5 kg/m3
30388 kPa | 961.6 kg/m3
30391 kPa | 961.6 kg/m3
30419 kPa | 961.6 kg/m3
30428 kPa | 961.5 kg/m3
30446 kPa | 961.5 kg/m3
30461 kPa | 961.6 kg/m3
30481 kPa | 961.6 kg/m3
30495 kPa | 961.6 kg/m3
30510 kPa | 961.7 kg/m3
30528 kPa | 961.6 kg/m3
30538 kPa | 961.6 kg/m3
30568 kPa | 961.6 kg/m3
30571 kPa | 961.6 kg/m3
30599 kPa | 961.6 kg/m3
30602 kPa | 961.8 kg/m3
30627 kPa | 961.7 kg/m3
30642 kPa | 961.7 kg/m3
30660 kPa | 961.6 kg/m3
30675 kPa | 961.7 kg/m3
30688 kPa | 961.8 kg/m3
30710 kPa | 961.8 kg/m3
30716 kPa | 961.7 kg/m3
30744 kPa | 961.7 kg/m3
30778 kPa | 961.7 kg/m3
30785 kPa | 961.7 kg/m3
30806 kPa | 961.8 kg/m3
30819 kPa | 961.8 kg/m3
30835 kPa | 961.8 kg/m3
30860 kPa | 961.8 kg/m3
30870 kPa | 961.7 kg/m3
30894 kPa | 961.8 kg/m3
30900 kPa | 961.7 kg/m3
30928 kPa | 961.8 kg/m3 and 962 kg/m3
30956 kPa | 961.9 kg/m3
30970 kPa | 962 kg/m3
30990 kPa | 961.7 kg/m3
31004 kPa | 961.9 kg/m3
31019 kPa | 961.9 kg/m3
31040 kPa | 962.1 kg/m3
31048 kPa | 961.8 kg/m3
31081 kPa | 962 kg/m3
31082 kPa | 961.8 kg/m3
31111 kPa | 962 kg/m3
31116 kPa | 962 kg/m3
31145 kPa | 962.1 kg/m3
31151 kPa | 962 kg/m3
31174 kPa | 962.1 kg/m3
31193 kPa | 962.1 kg/m3
31203 kPa | 961.9 kg/m3
31229 kPa | 962.1 kg/m3
31238 kPa | 962 kg/m3
31264 kPa | 962.1 kg/m3
31268 kPa | 962 kg/m3
31298 kPa | 962.1 kg/m3
31306 kPa | 962 kg/m3
31327 kPa | 962 kg/m3
31342 kPa | 962.2 kg/m3
31362 kPa | 962.1 kg/m3
31377 kPa | 962 kg/m3
31392 kPa | 962.1 kg/m3
31420 kPa | 962.3 kg/m3
31427 kPa | 962.1 kg/m3
31456 kPa | 962 kg/m3
31457 kPa | 962.2 kg/m3
31486 kPa | 962.2 kg/m3
31492 kPa | 962.3 kg/m3
31516 kPa | 962.2 kg/m3
31528 kPa | 962.2 kg/m3
31552 kPa | 962.2 kg/m3
31571 kPa | 962.3 kg/m3
31582 kPa | 962.3 kg/m3
31608 kPa | 962.4 kg/m3
31611 kPa | 962.3 kg/m3
31644 kPa | 962.3 kg/m3
31647 kPa | 962.2 kg/m3
31678 kPa | 962.4 kg/m3
31688 kPa | 962.3 kg/m3
31715 kPa | 962.3 kg/m3
31725 kPa | 962.5 kg/m3
31745 kPa | 962.3 kg/m3
31761 kPa | 962.4 kg/m3
31775 kPa | 962.4 kg/m3
31805 kPa | 962.4 kg/m3
31807 kPa | 962.4 kg/m3
31841 kPa | 962.4 kg/m3
31844 kPa | 962.4 kg/m3
31871 kPa | 962.5 kg/m3
31874 kPa | 962.4 kg/m3
31905 kPa | 962.5 kg/m3
31914 kPa | 962.5 kg/m3
31942 kPa | 962.3 kg/m3
31958 kPa | 962.4 kg/m3
31972 kPa | 962.6 kg/m3
32003 kPa | 962.4 kg/m3
32009 kPa | 962.5 kg/m3
32040 kPa | 962.6 kg/m3
32041 kPa | 962.6 kg/m3
32071 kPa | 962.6 kg/m3
32078 kPa | 962.5 kg/m3
32104 kPa | 962.5 kg/m3
32115 kPa | 962.6 kg/m3
32136 kPa | 962.5 kg/m3
32160 kPa | 962.6 kg/m3
32173 kPa | 962.5 kg/m3
32199 kPa | 962.6 kg/m3
32205 kPa | 962.6 kg/m3
32236 kPa | 962.7 kg/m3
32237 kPa | 962.7 kg/m3
32274 kPa | 962.7 kg/m3
32282 kPa | 962.7 kg/m3
32305 kPa | 962.7 kg/m3
32320 kPa | 962.7 kg/m3
32337 kPa | 962.6 kg/m3
32358 kPa | 962.7 kg/m3
32368 kPa | 962.7 kg/m3
32403 kPa | 962.8 kg/m3
32406 kPa | 962.7 kg/m3
32438 kPa | 962.8 kg/m3
32441 kPa | 962.8 kg/m3
32471 kPa | 962.8 kg/m3
32480 kPa | 962.9 kg/m3
32509 kPa | 962.8 kg/m3

Reference: the NIST ThermoML archive (doi:10.1021/je060271a)
